Assay [1] concerns FKBP*-KRASG12V. Kind of assay: Immunoblot of FKBP*-KRASG12V degradation in NIH3T3 cells. The format is cell-based. To be noted: NIH3T3 cells; 500 nM, indicated time. The protocol:
(§1) FIG. 19 is an immunoblot of NIH3T3 cells expressing KRASG12V allele fused to FKBP* in the N-terminus or C-terminus. Cells were treated with 500 nM dFKBP7 for the indicated time. Cells were harvested and immunoblotted to measure degradation of FKBP*-KRASG12V and downstream surrogates of KRAS signaling (e.g. pMEK and pAKT).
(§2) Cells were harvested and immunoblotted to measure degradation of FKBP*-KRASG12V and downstream surrogates of KRAS signaling (e.g. pMEK and pAKT).
as §2, §2
Cells were treated with 500 nM dFKBP7 for the indicated time. Cells were harvested and immunoblotted to measure degradation of FKBP*-KRAS and downstream surrogates of KRAS signaling (e.g. pMEK and pAKT).
(§3) Cells were harvested and immunoblotted to measure degradation of FKBP*-KRAS and downstream surrogates of KRAS signaling (e.g. pMEK and pAKT).
as §3
To evaluate the kinetic control of targeted degradation of dTAG-KRAS, dFKBP13 was administered by increased duration. […]

The subject of assay [2] is KRAS signaling (pMEK and pAKT). Nature of the assay: Immunoblot of downstream surrogates of KRAS signaling in NIH3T3 cells expressing FKBP*-KRASG12V. The format is cell-based. The note with it: NIH3T3 cells, N-terminal dTAG-KRAS; 500 nM, indicated time. As to the method: as §1
FIG. 20 is an immunoblot of NIH3T3 cells expressing FKBP* fused to the N-terminus of KRASG12V treated with 1 uM of the indicated dFKBP heterobifunctional compounds for 24 hours. Cells were harvested and immunoblotted to measure degradation of FKBP*-KRASG12V and downstream surrogates of KRAS signaling (e.g. pMEK and pAKT).
FIG. 21 is an immunoblot of NIH3T3 cells expressing FKBP* fused to the N-terminus of KRASG12V treated with the indicated concentrations of dFKBP13 for 24 hours. Cells were harvested and immunoblotted to measure degradation of FKBP*-KRASG12V and downstream surrogates of KRAS signaling (e.g. pMEK and pAKT).
FIG. 22 is an immunoblot of NIH3T3 cells expressing FKBP* fused to the N-terminus of KRASG12V treated with 1 uM dFKBP13 for the indicated time. Cells were harvested and immunoblotted to measure degradation of FKBP*-KRASG12V and downstream surrogates of KRAS signaling (e.g. pMEK and pAKT).
Cells were treated with 500 nM dFKBP7 for the indicated time. […]
(In western blotting, separated proteins are transferred to a membrane and probed.)

With `CC[C@H](C(=O)N1CCCC[C@H]1C(=O)O[C@H](CCc1ccc(OC)c(OC)c1)c1cccc(OCC(=O)NCCCOCCOCCOCCCNC(=O)COc2cccc3c2C(=O)N(C2CCC(=O)NC2=O)C3=O)c1)c1cc(OC)c(OC)c(OC)c1` (some centres unmarked) [dFKBP7], the “Degradation of N-terminal dTAG-KRAS” value in assay [1] was “potent degradation”. In addition, the p-AKT signal entry in assay [2] is given as “downstream decrease in p-AKT signal”.
